Drawing on US5925632A, “Derivatives of 3-pyrrolidylidene-2-one-cephalsporines” (Hoffmann-La Roche Inc., priority 1995, dated 1999), this text covers MIC for 5 molecules.

What all share (assay): MIC, agar dilution method in Mueller Hinton agar
Type in all cases: cell-based

For experiment [1], the system named is Actinetobacter sp. 51-156. As to conditions: read-out: MIC (Minimum Inhibiting Concentration). On the procedure: (§1) In vitro activity was determined by minimum inhibitory concentration in a microorganism spectum by the agar dilution method in Mueller Hinton agar.
Experiment [2] has as its system E. coli 25922. Conditions: Escherichia coli, read-out: MIC (Minimum Inhibiting Concentration). On the procedure: as §1
The subject of experiment [3] is E. faecalis 6. As to conditions: Enterococcus faecalis, read-out: MIC (Minimum Inhibiting Concentration). Here is the method: as §1
Experiment [4] has as its system S. viridans group 016. Conditions: Streptococcus viridans, GROUP016, read-out: MIC (Minimum Inhibiting Concentration). On the procedure:
as §1

The test system of experiment [5] is P. mirabilis 2117. As to conditions: Proteus mirabilis, read-out: MIC (Minimum Inhibiting Concentration). Here is the method: as §1
The test system of experiment [6] is M. catarrhalis RA21. As to conditions: Moraxella catarrhalis, read-out: MIC (Minimum Inhibiting Concentration). On the procedure: as §1
For experiment [7], the system named is S. pneumoniae Q19. As to conditions: Streptococcus pneumoniae, read-out: MIC (Minimum Inhibiting Concentration). On the procedure:
as §1

In experiment [8] the test system is C. freundii 43. As to conditions: Citrobacter freundii, read-out: MIC (Minimum Inhibiting Concentration). Here is the method:
as §1

Experiment [9] has as its system E. cloacae 908SSi. Conditions: Enterobacter cloacae, read-out: MIC (Minimum Inhibiting Concentration). On the procedure:
as §1

In experiment [10] the test system is S. pyogenes B15. Conditions: Streptococcus pyogenes, read-out: MIC (Minimum Inhibiting Concentration). On the procedure:
as §1

For experiment [11], the system named is E. cloacae 908R. As to conditions: Enterobacter cloacae, read-out: MIC (Minimum Inhibiting Concentration). On the procedure: as §1
Experiment [12] has as its system M. morganii 6H-137. As to conditions: Morganella morganii, 6H137, read-out: MIC (Minimum Inhibiting Concentration). On the procedure:
as §1

Experiment [13] deals with X. maltophilia 1AC739. As to conditions: Stenotrophomonas maltophilia, read-out: MIC (Minimum Inhibiting Concentration). On the procedure:
as §1

Experiment [14] has as its system S. marcescens 69438. As to conditions: Serratia marcescens, read-out: MIC (Minimum Inhibiting Concentration). Here is the method: as §1
Experiment [15] relates to S. aureus 734 MRSA. As to conditions: Staphylococcus aureus, read-out: MIC (Minimum Inhibiting Concentration). Here is the method: as §1
Experiment [16] has as its system L. monocytogenes BK23. As to conditions: Listeria monocytogenes, read-out: MIC (Minimum Inhibiting Concentration). Here is the method: as §1
The test system of experiment [17] is S. agalactiae QK44. Conditions: Streptococcus agalactiae, read-out: MIC (Minimum Inhibiting Concentration). On the procedure:
as §1

The test system of experiment [18] is S. aureus 6538. As to conditions: Staphylococcus aureus, read-out: MIC (Minimum Inhibiting Concentration). On the procedure: as §1
The subject of experiment [19] is C. freundii 902. Conditions: Citrobacter freundii, read-out: MIC (Minimum Inhibiting Concentration). Here is the method:
as §1

For experiment [20], the system named is K. pneumoniae 418. As to conditions: Klebsiella pneumoniae, read-out: MIC (Minimum Inhibiting Concentration). On the procedure:
as §1

In experiment [21] the test system is P. vulgaris 1028. As to conditions: Proteus vulgaris, read-out: MIC (Minimum Inhibiting Concentration). On the procedure: as §1
The subject of experiment [22] is P. aeruginosa 27853. Conditions: Pseudomonas aeruginosa, read-out: MIC (Minimum Inhibiting Concentration). Here is the method: as §1
The test system of experiment [23] is N. meningitidis 69480. Conditions: Neisseria meningitidis, read-out: MIC (Minimum Inhibiting Concentration). Here is the method: as §1
Experiment [24] relates to H. influenzae 1. Conditions: Haemophilus influenzae, read-out: MIC (Minimum Inhibiting Concentration). Here is the method:
as §1

≈ marks a conversion by molar mass, not a printed value. Structures can show the parent of a compound that is named as a salt.

Turning to `CC(C)CN1CC/C(=C\C2=C(C(=O)O)N3C(=O)[C@@H](NC(=O)/C(=N\O)c4csc(N)n4)[C@H]3SC2)C1=O.O=C(O)C(F)(F)F` [A, (6R,7R)-7-[(Z)-2-(2-amino-thiazol-4-yl)-2-hydroxyiminoacetylamino]-3-[(E)-1-isobutyl-2-oxo-pyrrolidin-3-ylidenemethyl]-8-oxo-5-thia-1-azabicyclo[4.2.0]oct-2-ene-2-carboxylic acid trifluoroacetate], the MIC was 16 µg/mL in experiment [1]; 0.25 µg/mL in [2]; 1 µg/mL in experiment [3]; at most 0.06 µg/mL in experiment [4]; 0.25 µg/mL in experiment [5]; 1 µg/mL in [6]. Also, the MIC was at most 0.06 µg/mL in experiment [7]; 4 µg/mL in experiment [8]; 0.5 µg/mL in [9]; at most 0.06 µg/mL in [10]; 16 µg/mL in [11]; 0.25 µg/mL in experiment [12]. Also, the MIC in [13] was above 32 µg/mL; in experiment [14], 1 µg/mL; in [15], 4 µg/mL; in [16], 4 µg/mL; in [17], 0.25 µg/mL; in experiment [18], 1 µg/mL. For the same molecule, the MIC in experiment [19] came out at 0.25 µg/mL; in [20] it was 0.5 µg/mL.

As to `CC(C)(C)CN1CC/C(=C\C2=C(C(=O)O)N3C(=O)[C@@H](NC(=O)/C(=N\O)c4csc(N)n4)[C@H]3SC2)C1=O` [B, (6R,7R)-7-[(Z)-2-(2-amino-thiazol-4-yl)-2-(hydroxyiminoacetylamino]-3-[(E)-1-(2,2-dimethyl-propyl)-2-oxo-pyrrolidin-3-ylidenemethyl]-8-oxo-5-thia-1-azabicyclo[4.2.0]oct-2-ene-2-carboxylic acid trifluoroacetate], the MIC in experiment [1] was 32 µg/mL; in experiment [2] it was 1 µg/mL; in [3] it was 2 µg/mL; in [4], 1 µg/mL; in experiment [5], 0.25 µg/mL; in experiment [6] it was 16 µg/mL. The MIC was at most 0.06 µg/mL in experiment [7]; 8 µg/mL in experiment [8]; 2 µg/mL in experiment [9]; at most 0.06 µg/mL in experiment [10]; 32 µg/mL in experiment [11]; 0.5 µg/mL in experiment [12]. Moreover, the MIC in experiment [21] is 4 µg/mL; in experiment [13], above 32 µg/mL; in experiment [14], 4 µg/mL; in [15], 16 µg/mL; in experiment [16] it was 4 µg/mL; in [17] it was 0.5 µg/mL. Moreover, the MIC in [18], in experiment [19] and in experiment [20] was 1 µg/mL throughout.

Regarding `Nc1nc(/C(=N/O)C(=O)N[C@@H]2C(=O)N3C(C(=O)O)=C(/C=C4\CCN(CC5CCCCC5)C4=O)CS[C@H]23)cs1` [C, (6R,7R)-7-[(Z)-2-(2-amino-thiazol-4-yl)-2-(hydroxyiminoacetylamino]-3-[(E)-1-cyclohexylmethyl-2-oxo-pyrrolidin-3-ylidenemethyl]-8-oxo-5-thia-1-azabicyclo[4.2.0]oct-2-ene-2-carboxylic acid trifluoroacetate], the MIC in experiment [1] came to 16 µg/mL; in experiment [2], 1 µg/mL; in experiment [3], 2 µg/mL; in experiment [4], 0.5 µg/mL; in experiment [5], 0.5 µg/mL; in [6], 16 µg/mL. In addition, the MIC is at most 0.06 µg/mL in [7]; 8 µg/mL in experiment [8]; 2 µg/mL in [9]; at most 0.06 µg/mL in experiment [10]; 16 µg/mL in experiment [11]; 4 µg/mL in experiment [12]. The MIC in [21] was 0.5 µg/mL; in experiment [13], above 32 µg/mL; in [14], 4 µg/mL; in [15] it was 8 µg/mL; in experiment [16] it was 4 µg/mL; in [17] it was 0.25 µg/mL. The MIC in experiment [18], in experiment [19] and in [20] was 1 µg/mL each time.

Take `C=CC1=C(C(=O)O)N2C(=O)[C@@H](NC(=O)/C(=N\O)c3csc(N)n3)[C@H]2SC1` [Cefdinir, reference compound]: the MIC in [1] is above 32 µg/mL; in [2], 0.25 µg/mL (≈ 0.632 µM); in [3], 8 µg/mL (≈ 20.2 µM); in experiment [4], 2 µg/mL (≈ 5.06 µM); in [5], 0.12 µg/mL (≈ 0.303 µM); in experiment [22] it was above 32 µg/mL. Also, the MIC was 1 µg/mL (≈ 2.53 µM) in [6]; at most 0.06 µg/mL in experiment [23]; 0.25 µg/mL (≈ 0.632 µM) in experiment [7]; above 32 µg/mL in experiment [8]; 32 µg/mL (≈ 80.9 µM) in [9]; at most 0.06 µg/mL in experiment [10]. The MIC in experiment [11] is above 32 µg/mL; in [12] it was 8 µg/mL (≈ 20.2 µM); in experiment [21], 1 µg/mL (≈ 2.53 µM); in experiment [13] it was above 32 µg/mL; in experiment [14] it was 16 µg/mL (≈ 40.5 µM); in [15], above 32 µg/mL. The MIC in experiment [16] turned out to be 16 µg/mL (≈ 40.5 µM); in experiment [17], 0.25 µg/mL (≈ 0.632 µM); in experiment [24], 0.5 µg/mL (≈ 1.26 µM); in [18], 0.5 µg/mL (≈ 1.26 µM); in experiment [19], 16 µg/mL (≈ 40.5 µM); in experiment [20], 0.12 µg/mL (≈ 0.303 µM).

For `CO/N=C(\C(=O)N[C@@H]1C(=O)N2C(C(=O)O)=C(CSc3nc(=O)c(=O)[nH]n3C)CS[C@H]12)c1csc(N)n1` [Ceftriaxone, [6R-[6a,7b(Z)]]-7-([[2-Amino-4-thiazolyl)(methoxyimino)acetyl]amino]-8-oxo-3-[[(1,2,5,6-tetrahydro-2-methyl-5,6dioxo-1,2,4-triazin-3-yl)thio]methyl]-5-thia-1-azabicyclo[4.2.0]oct-2-ene-2-carboxylic acid, reference compound], the MIC in experiment [1] is 32 µg/mL (≈ 57.7 µM); in experiment [2] it was at most 0.06 µg/mL; in [3] it was above 32 µg/mL; in [4] it was 0.25 µg/mL (≈ 0.451 µM); in [5], at most 0.06 µg/mL; in experiment [22], 16 µg/mL (≈ 28.9 µM). Further, the MIC in [6] is 1 µg/mL (≈ 1.8 µM); in experiment [23] it was at most 0.01 µg/mL; in experiment [7], at most 0.06 µg/mL; in [8], 32 µg/mL (≈ 57.7 µM); in experiment [9] it was 0.25 µg/mL (≈ 0.451 µM); in [10] it was at most 0.06 µg/mL. The MIC in experiment [11] was above 32 µg/mL; in [12] it was at most 0.06 µg/mL; in experiment [21], 0.12 µg/mL (≈ 0.216 µM); in experiment [13], above 32 µg/mL; in experiment [14] it was 0.25 µg/mL (≈ 0.451 µM); in [15] it was above 32 µg/mL. For the same molecule, the MIC was above 16 µg/mL in [16]; at most 0.06 µg/mL in [17]; at most 0.06 µg/mL in experiment [24]; 4 µg/mL (≈ 7.21 µM) in experiment [18]; 0.25 µg/mL (≈ 0.451 µM) in experiment [19]; at most 0.06 µg/mL in [20].
